Measured values reported in US20220211914A1, “HYALURONIC ACID HYDROGELS WITH PROLONGED ANTIMICROBIAL ACTIVITY” (INSTITUT NATIONAL DE LA SANTE ET DE LA RECHERCHE MEDICALE …, priority 2019, published 2022).
Entries after “also recorded” stand apart in the source; their conditions may differ.

How the values were obtained:
[1] = tested on: S. aureus; experiment: Antibacterial activity of PAR-loaded HA films, S. aureus culture, OD at 620 nm after 24 h; assay type: cell-based; conditions: loaded into HA hydrogels at 1 mg/mL; preliminary experiments
Protocol: FIG. 3: Bacterial growth on PAR pre-loaded and post-loaded HA films. Bacterial growth was evaluated after 24 h by optical density (OD) measurement at 620 nm. PARO corresponds to HA film without PAR. HA 2.5%+BDDE 20% films were added with 1 mg/mL PAR after cross-linking (=post-loaded films).
They assessed post-loading of PAR (adding 1 mg/mL solution of PAR onto cross-linked HA films). […] We also followed PAR release after 24 h from post-loaded films.
After 24 h, OD at 620 nm was measured and bacterial viability on the surfaces was assessed using BacLight Redox Sensor CTC Vitality kit (Molecular Probes) as a fluorescent marker.

[2] = tested on: bacteria; experiment: Repetitive culture of bacteria with PAR-loaded HA hydrogel discs (fresh bacteria every 24 h); assay type: cell-based; conditions: for duration of antibacterial effect in repetitive culture, additional test: additional test (FIG. 15); for lowest loading concentration showing antibacterial effect: loaded HA hydrogels
Protocol: Repetitive culture: after 24 h of bacterial culture, the samples were rinsed and seeded with fresh bacteria.
After 24 h of bacterial culture, the samples were rinsed and seeded with fresh bacteria.
Every 24 h of bacterial culture, the samples were seeded with fresh bacteria.

[3] = tested on: Balb/3T3 cells; experiment: Direct in vitro cytotoxicity test (ISO 10993) with MTT test; conditions: 24 h
Protocol: FIG. 14: Cell viability evaluation by MTT test. Balb/3T3 cells were seeded in 24-well plate and put in contact with HA hydrogel discs loaded or not with PARs for 24 h. HA discs correspond to BDDE-crosslinked HA hydrogel discs without PAR, and HA+PARs correspond to HA hydrogels loaded with different PAR concentrations (mg/mL). (A) Cell images after 24 h of direct in vitro cytotoxicity test. (B) Cell viability measured by MTT test. Dashed line corresponds to 70% viability (cytotoxicity limit).
Direct in vitro cytotoxicity test consists in putting material in contact with the cells for 24 h and performing MTT test to evaluate cell viability. According to ISO 10993, the tested material should cover approximately 1/10 of cell layer surface, which corresponds to ˜5 mm hydrogel discs per well of a 24-well plate.
After 24 h at 37° C., hydrogel discs were removed and MTT test was performed in order to measure cell metabolic activity, which often serves to estimate cell viability. […] The number of viable cells correlates to the colour intensity determined by photometric measurements after dissolving the formazan in alcohol (from ISO 10993).
So the discs, loaded or not with PAR, were sterilized and placed onto ˜80% confluent layer of Balb/3T3 cells. For MTT assay, the cells were incubated for 2 h in 0.2 mg/mL MTT-containing cell culture medium. The medium was then removed and formazan was dissolved in DMSO. Absorbance of resulting solutions was measured at 570 nm using spectrophotometer and images were taken around and under the discs to evaluate cell morphology.

[4] = PAR-FITC release from HA hydrogel discs in NaCl 1 M (confocal microscopy, spectrofluorimetry); conditions: for release according to the confocal microscopy images: 72 h at 37° C. in NaCl 1M, discs loaded with 0.5 mg/mL PAR-FITC; for released PAR (from percentage remaining, image processing): 72 h in NaCl 1 M, 100% = fluorescence intensity before release; for PAR concentration contained in the discs: disc volume approximately 30 μL, loaded in 0.5 mg·mL^−1
Protocol: FIGS. 20-24: Release of PARs in NaCl and in culture media. HA discs were incubated with 0.5 mg·mL^−1 of three different FITC-conjugated PAR for 24 h. The discs were rinsed, then incubated for 72 h in NaCl 1 M, MH or DMEM.
More specifically, total amounts of PAR contained in the hydrogels were estimated by incubation of hydrogels loaded with fluorescently labelled PAR in concentrated NaCl to promote PAR release. […] The percentage of PAR remaining in the hydrogel discs after 72 h of incubation was measured with image processing; 100% corresponds to fluorescence intensity before release. […] Then, amounts of PAR-FITC released were quantified by measuring fluorescence intensity of the supernatant by spectrofluorimetry and referring to a calibration curve.

[5] = PAR-loaded hydrogel stability in Tris/NaCl buffer; assay type: physicochemical; conditions: 48 h at room temperature or at 37° C.
[6] = PAR mobility inside HA hydrogels by FRAP; assay type: physicochemical; conditions: discs loaded with 0.5 mg/mL FITC-conjugated PAR for 24 h
Protocol: FIG. 8: PAR mobility inside HA hydrogels. HA discs were loaded with 0.5 mg/mL of three different FITC-conjugated PARs for 24 h and rinsed. Then, FRAP experiments were conducted. (A) Comparison of the fluorescence recovery of three PARs. (B) Determination of the diffusion coefficients D and percentage of mobile molecules p for three PARs.
Next, the inventors studied PARs mobility inside the hydrogels (FIG. 8) using FRAP (fluorescence recovery after photobleaching) technique. […] Quantitative parameters such as diffusion coefficient were also determined (FIG. 8B).

[7] = Loading of PAR-FITC into HA hydrogel discs (CLSM images, fluorescence profiles); assay type: physicochemical; conditions: for distribution in hydrogel discs (fluorescent profiles): discs loaded with 0.5 mg/mL PAR-FITC
Protocol: FIG. 6: Loading of PAR30-FITC into HA hydrogel discs at different concentrations for 3 h and 24 h. (A) CLSM images (B) Quantification of PAR concentration in the center of the discs.
FIG. 7: Loading of PARs-FITC into HA hydrogel discs. CSLM images of HA hydrogel discs loaded with 0.5 mg/mL of three PARs labelled with FITC (on the left) and fluorescence profiles of the resulting discs (on the right).
To load PAR into the hydrogels, the discs were immersed in PAR solution and incubated at room temperature. For 4 mm discs in 24-well plate, 0.5 mL of PAR solution was used. Then the discs were rinsed with Tris/NaCl buffer two times: one short and one long (at least 1 hour) rinsing.
To visualize PAR loading and diffusion inside the hydrogels, they again used fluorescently-labelled PARs (PAR10-FITC, PAR30-FITC, PAR200-FITC).

[8] = PAR-FITC release from HA hydrogels in MH and DMEM culture media; conditions: for release rate in MH: followed during 72 hours at 37° C. in MH; for release in DMEM/FBS relative to MH: 24 h of incubation at 37° C.
Protocol: Using FITC-labeled PARs of 10 units, 30 units and 200, the inventors evaluated their release at 37° C. from HA hydrogels in two different media.
They performed discs imaging after 24 h of incubation at 37° C. in MH (Mueller Hinton broth, bacterial culture medium) and in DMEM (Dulbecco's modified Eagle's medium+10% FBS+antibiotics, cell culture medium).
More specifically, PAR release from the hydrogels was followed during 72 hours in microbiological growth medium (MH) or cell culture medium (DMEM). PAR-FITC loaded hydrogels were placed into these media and incubated at 37° C., and PAR release was observed by confocal microscopy (FIG. 22).

[9] = 0.1 mg/mL-loaded hydrogels, fresh bacteria added every day
[10] = HA hydrogel discs loaded at 1 mg/mL
[11] = hydrogels loaded with 0.05 mg/mL

Substance: poly-L-arginine [PAR10]
- antibacterial activity [1]: antibacterial activity
- duration of antibacterial effect in repetitive culture, additional test ([2]; 0.1 mg/mL-loaded hydrogels): 3 days
- duration of antibacterial effect in repetitive culture [2, 9]: 2 days
- duration of antibacterial effect in repetitive culture [2, 10]: 8 days
- lowest loading concentration showing antibacterial effect [2]: 0.05 mg/mL
- cell viability by MTT test ([3]; 0.1 mg/mL-loaded hydrogels): good
- cell viability by MTT test [3, 11]: good viability
- release according to the confocal microscopy images [4]: almost complete
- released PAR (from percentage remaining, image processing) [4]: about 97%
- PAR concentration contained in the discs [4]: about 7.3 mg·mL^−1
- PAR-FITC release in Tris/NaCl buffer [5]: no PAR-FITC release
- mobility inside the hydrogels (qualitative, FRAP) [6]: most mobile
- distribution in hydrogel discs (fluorescent profiles) [7]: more homogeneous distribution
- release rate in MH [8]: faster

Substance: poly-L-arginine [PAR30]
- antibacterial activity [1]: antibacterial activity
- duration of antibacterial effect in repetitive culture, additional test ([2]; 0.1 mg/mL-loaded hydrogels): 5 days
- duration of antibacterial effect in repetitive culture [2, 9]: 4 days
- duration of antibacterial effect in repetitive culture ([2]; HA hydrogel discs loaded at 0.5 mg/mL): 8 days
- duration of antibacterial effect in repetitive culture [2, 10]: 8 days
- comparison of prolonged antibacterial effect among PAR lengths ([2]; PAR10, PAR30, PAR200 loaded HA hydrogels, repetitive culture): most prolonged antibacterial effect; also recorded: most efficient
- lowest loading concentration showing antibacterial effect [2]: 0.05 mg/mL
- cell viability by MTT test ([3]; 0.1 mg/mL-loaded hydrogels): good
- cell viability by MTT test [3, 11]: good viability
- release according to the confocal microscopy images [4]: ~80%
- released PAR (from percentage remaining, image processing) [4]: ~78%
- PAR concentration contained in the discs [4]: ~6.7 mg/mL
- PAR-FITC release in Tris/NaCl buffer [5]: no PAR-FITC release
- diffusion into the disc center, 24 h vs. 3 h loading ([7]; PAR30-FITC loading for 3 h vs. 24 h): diffused more into the discs center
- distribution in hydrogel discs (fluorescent profiles) [7]: more homogeneous distribution
- release in DMEM/FBS relative to MH [8]: higher than in MH
- release rate in MH [8]: released more gradually

Substance: poly-L-arginine [PAR200]
- antibacterial activity [1]: antibacterial activity
- duration of antibacterial effect in repetitive culture [2, 10]: 7 days
- release according to the confocal microscopy images [4]: ~80%
- released PAR (from percentage remaining, image processing) [4]: ~78%
- PAR concentration contained in the discs [4]: ~3.9 mg/mL
- PAR-FITC release in Tris/NaCl buffer [5]: no PAR-FITC release
- mobility inside the hydrogels (qualitative, FRAP) [6]: least mobile
- release in DMEM/FBS relative to MH [8]: higher than in MH
- release rate in MH [8]: released more gradually
